According to the NIST ThermoML archive (doi:10.1016/j.tca.2009.05.015):
± gives the expanded uncertainty stated by the source.

Conditions: 293 K; 101.33 kPa; Crystal; X-ray diffraction

mass density: 1022 ± 2 kg/m3
Structure (SMILES): CCCCCCCCCCCCN.Cl [dodecanamine hydrochloride]
